Experiments:
Type in all cases: in vivo
C57BL/6J mice = test: Conditioned place preference induced by the drug itself; details: for Distance travelled in the drug-paired compartment / Distance travelled in the two compartments (Drug + Vehicle) / Distance travelled in the vehicle-paired compartment / Distance travelled, drug-paired minus vehicle-paired compartment / Time spent in the drug-paired compartment / Time spent in the vehicle-paired compartment / Time spent, drug-paired minus vehicle-paired compartment: vehicle before preference session, day 12, mean
Text: Conditioned place preference (CPP) is a widely used procedure for studying the potential addictive effect of drugs. CPP is based upon the tendency of rodents to approach a stimulus that has previously been paired with an incentive state induced by a drug. A drug that induces a CPP may be suspected to present reinforcing effects that could lead to addiction. Numerous addictive drugs, such as opiate agonists or stimulants induce a CPP and a behavioral sensitization.
The effect of mazindol on place preference was examined in C57BL/6J mice using a method similar to the one used by Schlussman et al. (9).
The second experiment consisted in determining the optimal dose of heroin which induces the most significant CPP. For this purpose, the CPP induced by heroin at 1.25, 2.5 and 5 mg/kg was examined.
(§1) Following the habituation session (on day 1), animals (N=72) were pseudo-randomly assigned to two groups, a Control group (N=12) and a Heroin group (N=60), in a way that there was no significant difference between the two groups for the total distance travelled in the apparatus and for the percentage of time spent and the percentage distance travelled in the grey compartment and in the striped compartment.
Animals received the following treatments immediately before drug sessions: • Control group: vehicle • Heroin group: heroin (1.25 mg/kg)
as §1, with “three” for “two”, “(N=12),” for “(N=12) and”, “(N=48) and a Mazindol group (N=12),” for “(N=60),”
Animals received the following treatments before drug sessions: • Control group: vehicle, i.p. immediately before session. • Heroin group: heroin (1.25 mg/kg), i.p. immediately before session. • MAZ 2 group: mazindol (2 mg/kg), i.p. 60 min before session.
Animals received the following treatments before preference session: • Control group: vehicle of mazindol, i.p. 60 min before testing. • Hero group: vehicle of mazindol, i.p. 60 min before testing. • Hero-Mz 1 group: mazindol (1 mg/kg), i.p. 60 min before testing. • Hero-Mz 2 group: mazindol (2 mg/kg), i.p. 60 min before testing. • Hero-A 1 group: D-amphetamine (1 mg/kg), i.p. 30 min before testing. • MAZ 2 group: vehicle of mazindol, i.p. 60 min before testing.

[1] = Heroin intoxication procedure after Jiang et al., mortality; details: two subcutaneous injections/day of heroin at increasing doses (3 to 30 mg/kg)
Protocol: In the protocol planned before, it was planned to follow the method used by Jiang et al. Mice had to receive two subcutaneous injections/day of heroin at increasing doses (3 to 30 mg/kg) for 9 consecutive days and a single injection on the 10th day. […] It is likely that the discrepancy of toxicity between our experiments and the study of Jiang et al. partly resulted from difference in purity of heroin. Therefore, it was necessary to develop a method allowing to observe clear withdrawal symptoms and an acceptable mortality rate. This method is presented below. For information, 178 rats, including those used for the development of the method, have been used for this study of which 54 have been included in the results presented here.

Sprague-Dawley rats = test: Naloxone precipitated withdrawal syndrome of heroin
Protocol: The abrupt cessation of chronic opiate use results in a well characterized withdrawal syndrome with symptoms that include pain sensitivity, dysphoria, irritability, restlessness, insomnia, diarrhea and hyperventilation. In the present model, the naloxone-precipitated withdrawal syndrome is measured in rodents. Animals are chronically treated with a drug, e.g. morphine or heroin. Opiate withdrawal syndrome is elicited by an acute injection of the opiate antagonist Naloxone.
The effect of mazindol on heroin withdrawal syndrome elicited by naloxone was examined in Sprague-Dawley rats using a method similar to the one used by Jiang et al. (10),
Animals were subdivided into two groups. One group received heroin two i.p. injections/day for 12 consecutive days and a single injection on the 13th day (total: 25 injections) as exposed in Table 3 group received saline instead of heroin following the same protocol.
On day 13, animals received treatments and were tested according to the following time schedule: • T=0: i.p. injection of heroin (15 mg/kg) or vehicle. • T=2.5 h: animals individually placed in a transparent Plexiglas observation boxes (40×40×40 cm). • T=3.5 h: i.p. injection of treatment (see below). • T=4 h: i.p. injection of naloxone (5 mg/kg), start of test: observation of withdrawal symptoms as indicated in Table 4. • T=5 h: end of test, animals placed back into their home cages.
Animals received the following treatments at T 3.5 h (i.e. 30 min before injection of naloxone and observation of symptoms): • 1) Animals treated with saline during the intoxication period (days 1-12) and at T0 on day 13: • Saline group (N=8): saline (0.9% NaCl). • 2) Animals treated with […] during the intoxication period (days 1-12) and at T0 on day 13: • Hero group (N=14): saline (0.9% NaCl). • Amph 1 group (N=4): D-amphetamine (1 mg/kg). • Maz 0.125 group (N=5): mazindol (0.125 mg/kg). • Maz 0.25 group (N=6): mazindol (0.25 mg/kg). • Maz 0.5 group (N=6): mazindol (0.5 mg/kg). • Maz 1 group (N=6): mazindol (1 mg/kg). • Maz 2 group (N=5): mazindol (2 mg/kg).
A weighting factor was ascribed for each sign from which a score was calculated.
Examples: • Body weight before naloxone injection=241 g; after naloxone injection=236 g: • Weight loss score=2=100×(241−236)/241 • Number of escape attempts=8: • Score for escape attempts=2 • Profuse salivation present: • Score for profuse salivation
A global withdrawal score was then calculated: • Global score=the sum of the scores

[2] = Hero group N = 12 (Table 6): heroin 1.25 mg/kg i.p. before drug sessions
[3] = Hero group N = 24 (Table 5): heroin 1.25 mg/kg i.p. before drug sessions
[4] = Hero n = 14: heroin i.p. days 1-13 (2-15 mg/kg), saline 30 min before naloxone 5 mg/kg, mean
[5] = heroin-treated vs. saline rats, naloxone 5 mg/kg

CC(=O)Oc1ccc2c3c1O[C@H]1[C@@H](OC(C)=O)C=C[C@H]4[C@@H](C2)N(C)CC[C@@]341 [Heroin]
Distance travelled in the drug-paired compartment (C57BL/6J mice; [2]): 7919.1 cm
Distance travelled in the two compartments (Drug + Vehicle) (C57BL/6J mice; [2]): 13647.5 cm
Distance travelled in the vehicle-paired compartment (C57BL/6J mice; [2]): 5728.4 cm
Distance travelled, drug-paired minus vehicle-paired compartment (C57BL/6J mice; [2]): 2190.6 cm
Time spent in the drug-paired compartment (C57BL/6J mice; [2]): 1063.0 s
Time spent in the vehicle-paired compartment (C57BL/6J mice; [2]): 737.0 s
Time spent, drug-paired minus vehicle-paired compartment (C57BL/6J mice; [2]): 325.9 s
Distance travelled in the drug-paired compartment (C57BL/6J mice; [3]): 7943.6 cm
Distance travelled in the two compartments (Drug + Vehicle) (C57BL/6J mice; [3]): 13892.0 cm
Distance travelled in the vehicle-paired compartment (C57BL/6J mice; [3]): 5948.4 cm
Distance travelled, drug-paired minus vehicle-paired compartment (C57BL/6J mice; [3]): 1995.3 cm
Time spent in the drug-paired compartment (C57BL/6J mice; [3]): 1023.7 s
Time spent in the vehicle-paired compartment (C57BL/6J mice; [3]): 776.3 s
Time spent, drug-paired minus vehicle-paired compartment (C57BL/6J mice; [3]): 247.4 s
place preference induced by the drug (C57BL/6J mice; heroin 1.25 mg/kg before drug sessions): induced a place preference
total distance travelled in two compartments (FIG. 3) (C57BL/6J mice; heroin 1.25 mg/kg before drug sessions, preference session): No significant modification
CPP induced by heroin (second experiment) (C57BL/6J mice; heroin 1.25, 2.5 and 5 mg/kg): induced CPP at the three doses tested
mortality [1]: substantial mortality
Abdominal constrictions score (Abd C) (Sprague-Dawley rats; [4]): 4.1
Abnormal posture score (Ab P) (Sprague-Dawley rats; [4]): 0.2
Chromodacryorrhea score (Chr) (Sprague-Dawley rats; [4]): 1.1
Diarrhea score (Diarr) (Sprague-Dawley rats; [4]): 2.0
Erection or ejaculation score (Er Ej) (Sprague-Dawley rats; [4]): 0.0
Escape attempts score (Esc A) (Sprague-Dawley rats; [4]): 1.1
Facial fasciculation or teeth chattering score (F F T C) (Sprague-Dawley rats; [4]): 2.0
Global Score (Sprague-Dawley rats; [4]): 22.4
Irritability score (Irrit) (Sprague-Dawley rats; [4]): 0.0
Profuse salivation score (Pr Sal) (Sprague-Dawley rats; [4]): 5.5
Ptosis score (Ptos) (Sprague-Dawley rats; [4]): 0.1
Swallowing movements score (Sw M) (Sprague-Dawley rats; [4]): 0.9
Weight loss score (W Los) (Sprague-Dawley rats; [4]): 1.9
Wet dog shakes score (W D S) (Sprague-Dawley rats; [4]): 3.4
global score and scores for weight loss, escape attempts, wet dog shake, diarrhea, facial fasciculation or teeth chattering and profuse salivation (Sprague-Dawley rats; [5]): induced an increase
scores for abdominal constrictions and chromodacryorrhea (Sprague-Dawley rats; [5]): non-significantly increased
